Experimental findings from patent US5736546A, “1,4-(diphenlyalkyl) piperazine derivatives” (Santen Pharmaceutical Co., Ltd., priority 1993, dated 1998) are described below.

For orientation: IC50 means the concentration that inhibits the measured activity by half.

One assay deals with μ receptors (Rattus norvegicus, UniProt P33535).
Assay [1] deals with amount of acetylcholine in rat brain. Kind of assay: Increasing effects on the amount of intracerebral acetylcholine (intracerebral microdialysis method). Format: in vivo, male Wistar rat. The settings on record: oral, 30 minutes after administration, averages of 3-7 samples. The method, then:
(The New England Journal of Medicine, 315, 1241-1245 (1986)), the amount of acetylcholine in rat brain was then measured according to the report of Matsuno et al. (Brain Research, 575, 315-319 (1992)). […] 2. […] (The New England Journal of Medicine, 315, 1241-1245 (1986)), an experiment was performed to examine effects of the compounds of this invention on the amount of acetylcholine in rat brain. (Experimental Method) The amount of acetylcholine in rat brain was measured by the following method using intracerebral microdialysis method according to the report of Matsuno et al. (Brain Research, 575, 315-319 (1992)). […] The amount of acetylcholine in rat brain was measured with time. When it became constant, the test compound suspended in 1% methylcellulose solution was administered orally to the rat, and the amount of intracerebral acetylcholine was measured. The amount of acetylcholine in rat brain (average of six samples) to which the test compound was not administered was used as a control.

The target of assay [2] is T1, sigma receptors (Cavia porcellus, UniProt Q60492).
T1 construct: A brain of a Hartley guinea pig (weight: 300-400 g) was excised; from tissue; host or cells: Hartley guinea pig brain, membrane preparation
Kind of assay: Experiment using [3H](+)-PTZ as a labeled ligand (affinity for sigma receptors). Set-up: species or system Hartley guinea pig. The settings on record: [3H](+)-PTZ 5 nM; guinea pig brain membrane; 37° C., 150 minutes; averages of 4-11 samples; read-out: IC50 (inhibition of specific binding of [3H](+)-PTZ).
Description: Experiment Using [^3 H](+)-PTZ as a Labeled Ligand
Affinities for sigma receptors were determined by the following method using [^3 H](+)-PTZ as a labeled ligand according to the report of DeHaven-Hudkins et al. (Eur. I. Pharmacol,, 227, 371-378 (1992)).

In assay [3] the target is T1, sigma receptors. Kind of assay: biochemical. The arrangement: species or system Hartley guinea pig. The settings on record: read-out: IC50 (inhibition of specific binding of [3H](+)-SKF-10047).

Counter-ions that a name gives are not always drawn. A value given as a limit tells only on which side of the number the result lay.

T1 sequence (Q60492 whole entry): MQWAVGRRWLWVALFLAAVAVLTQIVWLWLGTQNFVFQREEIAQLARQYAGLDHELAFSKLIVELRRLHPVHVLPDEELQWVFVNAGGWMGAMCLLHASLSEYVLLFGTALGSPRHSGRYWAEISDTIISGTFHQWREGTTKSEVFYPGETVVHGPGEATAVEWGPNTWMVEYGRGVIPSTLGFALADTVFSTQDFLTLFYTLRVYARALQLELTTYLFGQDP
μ receptors, sequence (P33535 whole entry): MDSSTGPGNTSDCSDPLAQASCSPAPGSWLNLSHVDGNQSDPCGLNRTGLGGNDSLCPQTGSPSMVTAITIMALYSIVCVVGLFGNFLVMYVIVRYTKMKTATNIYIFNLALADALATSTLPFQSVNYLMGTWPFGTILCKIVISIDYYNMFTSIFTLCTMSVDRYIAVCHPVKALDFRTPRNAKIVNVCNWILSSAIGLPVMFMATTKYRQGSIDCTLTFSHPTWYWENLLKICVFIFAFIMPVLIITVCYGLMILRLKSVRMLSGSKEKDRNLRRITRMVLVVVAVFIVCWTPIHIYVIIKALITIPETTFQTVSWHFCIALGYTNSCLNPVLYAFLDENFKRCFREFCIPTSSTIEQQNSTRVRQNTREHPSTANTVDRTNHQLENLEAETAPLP

As for `COc1ccc(CCN2CCN(CCCc3ccccc3)CC2)cc1OC.Cl.Cl` [compound No. 1-1, 1-[2-(3,4-Dimethoxyphenyl)ethyl]-4-(3-phenylpropyl)piperazine dihydrochloride], the IC50 against μ receptors is over 10000 nM. For the same compound, the figures for the “amount of acetylcholine (% control)” value in assay [1] (10 mg/kg) and in assay [1] (20 mg/kg) were 154.3 % control and 170.0 % control, respectively.

As for `COc1ccc(CCN2CCN(CCc3ccccc3)CC2)cc1OC` [compound No. 1-2, 1-[2-(3,4-Dimethoxyphenyl)ethyl]-4-(2-phenylethyl)piperazine dihydrochloride], the IC50 against μ receptors was over 10000 nM; at sigma receptors [2], 18 nM; at sigma receptors [3] it was 9.32 nM.

As for `COc1ccc(CCN2CCN(Cc3ccccc3)CC2)cc1OC` [compound No. 1-3, 1-[2-(3,4-Dimethoxyphenyl)ethyl]-4-benzylpiperazine dihydrochloride], the IC50 was over 10000 nM on μ receptors and 4.28 nM on sigma receptors [3] ([3H](+)-SKF-10047 5 nM, guinea pig brain membrane, 25° C., 30 minutes).

Consider `COc1ccc(CCN2CCN(CCCCc3ccccc3)CC2)cc1OC.Cl.Cl` [compound No. 1-4, 1-[2-(3,4-Dimethoxyphenyl)ethyl]-4-(4-phenylbutyl)piperazine dihydrochloride], for which the entries for the “amount of acetylcholine (% control)” value in assay [1] (40 mg/kg) and in assay [1] (80 mg/kg) were 146.2 % control and 164.9 % control, respectively. For the same compound, the IC50 on sigma receptors [2] stood at 10.7 nM.

Turning to `COc1ccc(CCCN2CCN(CCCc3ccccc3)CC2)cc1OC.Cl.Cl` [compound No. 1-6, 1-[3-(3,4-Dimethoxyphenyl)propyl]-4-(3-phenylpropyl)piperazine dihydrochloride], the results for the “amount of acetylcholine (% control)” value in assay [1] (20 mg/kg) and in assay [1] (40 mg/kg) were 146.1 % control and 176.9 % control, respectively. The IC50 at sigma receptors [2] was 14.9 nM.
